We go through two molecules from paper PMC7612079 (Science translational medicine, 2021).

Holding throughout (assay type): biochemical
Assay [1] has as its target T1, TANK-binding kinase 1 (Homo sapiens, UniProt Q9UHD2).
T1 sequence (Q9UHD2 1-729): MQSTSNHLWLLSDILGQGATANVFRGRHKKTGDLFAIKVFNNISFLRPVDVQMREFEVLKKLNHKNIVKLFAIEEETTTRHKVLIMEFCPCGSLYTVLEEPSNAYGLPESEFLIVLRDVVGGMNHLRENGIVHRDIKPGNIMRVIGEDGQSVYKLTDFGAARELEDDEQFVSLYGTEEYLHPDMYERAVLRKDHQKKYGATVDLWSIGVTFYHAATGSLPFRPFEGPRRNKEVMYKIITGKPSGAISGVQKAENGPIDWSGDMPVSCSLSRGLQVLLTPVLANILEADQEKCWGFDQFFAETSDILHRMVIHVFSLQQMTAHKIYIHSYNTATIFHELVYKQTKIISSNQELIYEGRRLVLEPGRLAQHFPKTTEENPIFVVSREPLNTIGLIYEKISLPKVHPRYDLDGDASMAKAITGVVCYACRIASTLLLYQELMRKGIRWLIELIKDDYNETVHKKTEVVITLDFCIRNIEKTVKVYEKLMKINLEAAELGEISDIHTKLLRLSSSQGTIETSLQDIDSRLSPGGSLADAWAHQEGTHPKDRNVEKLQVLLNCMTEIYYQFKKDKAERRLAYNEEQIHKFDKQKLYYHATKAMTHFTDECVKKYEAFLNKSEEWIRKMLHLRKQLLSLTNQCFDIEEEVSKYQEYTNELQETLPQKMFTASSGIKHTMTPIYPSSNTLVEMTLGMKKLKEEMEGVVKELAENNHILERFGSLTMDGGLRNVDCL
Briefly: single-point panel of […] kinases at […]. The conditions noted are these: read-out: % inhibition at 1 μM.

Assay [2] deals with T2, ULK2 (Homo sapiens, UniProt Q8IYT8).
T2 sequence (Q8IYT8 1-1036): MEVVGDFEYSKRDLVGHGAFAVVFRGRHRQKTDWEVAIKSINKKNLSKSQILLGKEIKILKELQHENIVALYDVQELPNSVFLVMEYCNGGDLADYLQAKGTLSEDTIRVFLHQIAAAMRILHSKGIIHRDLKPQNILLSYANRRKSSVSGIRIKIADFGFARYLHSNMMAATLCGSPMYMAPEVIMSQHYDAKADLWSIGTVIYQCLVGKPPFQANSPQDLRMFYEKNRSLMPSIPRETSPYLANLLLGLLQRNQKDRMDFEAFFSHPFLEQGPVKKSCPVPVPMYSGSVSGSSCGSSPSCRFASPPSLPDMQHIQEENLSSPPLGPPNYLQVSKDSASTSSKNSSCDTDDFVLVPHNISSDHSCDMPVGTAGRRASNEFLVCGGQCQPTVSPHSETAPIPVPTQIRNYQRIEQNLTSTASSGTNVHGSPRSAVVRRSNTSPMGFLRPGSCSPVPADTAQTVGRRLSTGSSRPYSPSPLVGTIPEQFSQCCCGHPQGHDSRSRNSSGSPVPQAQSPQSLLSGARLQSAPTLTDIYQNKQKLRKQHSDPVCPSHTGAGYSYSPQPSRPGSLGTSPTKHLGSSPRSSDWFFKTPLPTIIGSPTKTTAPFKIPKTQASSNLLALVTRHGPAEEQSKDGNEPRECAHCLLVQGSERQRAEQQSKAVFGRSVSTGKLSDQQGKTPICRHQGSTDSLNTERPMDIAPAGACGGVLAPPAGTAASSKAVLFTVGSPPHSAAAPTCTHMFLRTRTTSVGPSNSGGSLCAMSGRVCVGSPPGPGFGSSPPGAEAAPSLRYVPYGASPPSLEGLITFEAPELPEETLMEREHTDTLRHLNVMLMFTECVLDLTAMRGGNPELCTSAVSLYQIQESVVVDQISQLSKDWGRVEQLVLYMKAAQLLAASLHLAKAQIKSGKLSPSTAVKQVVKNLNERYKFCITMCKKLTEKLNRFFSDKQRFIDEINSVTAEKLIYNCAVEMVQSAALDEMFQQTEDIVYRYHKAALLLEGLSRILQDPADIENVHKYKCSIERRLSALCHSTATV
As to the kind of experiment: single-point kinase panel at […].

Assay [3] concerns the target T3, ULK1 (unc-51–like autophagy activating kinase 1) (Homo sapiens, UniProt O75385).
T3 sequence (O75385 1-1050): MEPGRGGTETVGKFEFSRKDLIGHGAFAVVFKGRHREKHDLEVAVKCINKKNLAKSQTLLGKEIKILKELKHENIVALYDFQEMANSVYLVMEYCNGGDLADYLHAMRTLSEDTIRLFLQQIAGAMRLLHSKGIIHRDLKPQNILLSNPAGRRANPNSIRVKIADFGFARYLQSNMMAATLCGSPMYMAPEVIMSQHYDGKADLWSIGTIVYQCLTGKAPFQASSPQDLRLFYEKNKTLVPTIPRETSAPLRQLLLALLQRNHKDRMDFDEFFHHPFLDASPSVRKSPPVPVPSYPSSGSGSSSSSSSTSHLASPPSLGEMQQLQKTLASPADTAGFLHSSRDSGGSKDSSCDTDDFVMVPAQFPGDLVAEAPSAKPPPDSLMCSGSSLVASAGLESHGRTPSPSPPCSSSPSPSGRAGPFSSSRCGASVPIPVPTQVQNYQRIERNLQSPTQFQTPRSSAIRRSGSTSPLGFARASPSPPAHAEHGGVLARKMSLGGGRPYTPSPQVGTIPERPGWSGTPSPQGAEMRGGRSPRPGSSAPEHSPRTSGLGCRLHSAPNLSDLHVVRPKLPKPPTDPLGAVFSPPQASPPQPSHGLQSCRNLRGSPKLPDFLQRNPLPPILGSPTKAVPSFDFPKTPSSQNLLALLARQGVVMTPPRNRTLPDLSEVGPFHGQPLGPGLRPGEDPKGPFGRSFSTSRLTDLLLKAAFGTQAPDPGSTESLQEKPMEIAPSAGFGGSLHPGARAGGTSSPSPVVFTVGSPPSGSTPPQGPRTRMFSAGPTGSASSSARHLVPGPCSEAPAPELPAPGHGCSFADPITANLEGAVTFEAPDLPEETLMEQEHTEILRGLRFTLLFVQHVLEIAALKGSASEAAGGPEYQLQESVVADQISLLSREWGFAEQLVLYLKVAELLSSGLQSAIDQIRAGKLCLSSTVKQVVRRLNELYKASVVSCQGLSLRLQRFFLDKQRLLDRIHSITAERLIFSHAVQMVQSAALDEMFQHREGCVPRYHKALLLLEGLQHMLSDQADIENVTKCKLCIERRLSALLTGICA
Briefly: single-point kinase panel at […]. The conditions noted are these: read-out: % inhibition at 1 μM.

Assay [4] concerns the target AMPK (Homo sapiens, UniProt P54646). As to the kind of experiment: single-point panel of […] kinases at […]. The conditions noted are these: read-out: % inhibition at 1 μM.
The target in assay [5] is T3, ULK1 (unc-51–like autophagy activating kinase 1). Briefly: radiometric […] kinase assay with myelin basic protein, […] ATP.

For orientation: inhibition means the change of the read-out against control, counted positive when it falls. As a reminder, the IC50 is the point on the concentration scale where inhibition reaches its midpoint. Read a high IC50 as weaker potency in that assay.

A value given as a limit tells only on which side of the number the result lay.

Chain of AMPK (P54646 whole entry): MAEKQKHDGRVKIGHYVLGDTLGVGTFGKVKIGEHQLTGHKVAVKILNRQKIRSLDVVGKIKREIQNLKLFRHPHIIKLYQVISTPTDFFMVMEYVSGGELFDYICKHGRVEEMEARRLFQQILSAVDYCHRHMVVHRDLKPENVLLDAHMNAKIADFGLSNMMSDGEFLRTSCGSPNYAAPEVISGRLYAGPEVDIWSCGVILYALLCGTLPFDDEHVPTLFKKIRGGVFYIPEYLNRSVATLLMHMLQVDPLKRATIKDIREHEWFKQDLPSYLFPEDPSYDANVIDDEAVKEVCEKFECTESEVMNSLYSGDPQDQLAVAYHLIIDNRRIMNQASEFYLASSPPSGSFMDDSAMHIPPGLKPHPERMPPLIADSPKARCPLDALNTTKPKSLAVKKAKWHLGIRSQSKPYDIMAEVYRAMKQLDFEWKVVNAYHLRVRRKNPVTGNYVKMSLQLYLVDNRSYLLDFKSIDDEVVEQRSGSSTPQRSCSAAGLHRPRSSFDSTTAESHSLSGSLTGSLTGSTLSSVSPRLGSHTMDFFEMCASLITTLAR
Chain of AMPK (Q9Y478 2-270 partner): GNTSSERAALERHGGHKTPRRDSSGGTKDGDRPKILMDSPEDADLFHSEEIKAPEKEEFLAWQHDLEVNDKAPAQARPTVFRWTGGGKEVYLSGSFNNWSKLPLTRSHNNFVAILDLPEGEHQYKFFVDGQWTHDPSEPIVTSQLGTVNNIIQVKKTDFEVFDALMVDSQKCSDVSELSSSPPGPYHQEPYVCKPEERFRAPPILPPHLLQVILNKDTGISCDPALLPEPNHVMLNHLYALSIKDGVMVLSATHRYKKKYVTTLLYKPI
Chain of AMPK (P54619 whole entry partner): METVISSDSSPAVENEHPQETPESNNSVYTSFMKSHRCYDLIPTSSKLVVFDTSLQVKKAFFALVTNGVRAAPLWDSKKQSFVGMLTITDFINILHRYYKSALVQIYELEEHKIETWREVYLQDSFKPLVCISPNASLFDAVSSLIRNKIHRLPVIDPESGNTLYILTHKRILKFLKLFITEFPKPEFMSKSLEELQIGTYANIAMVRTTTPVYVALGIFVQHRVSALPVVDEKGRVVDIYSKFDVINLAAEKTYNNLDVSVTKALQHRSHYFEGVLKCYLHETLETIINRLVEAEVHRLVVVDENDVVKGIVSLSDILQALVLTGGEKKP

Consider `CN1CCc2cc(Nc3ncc(C4CC4)c(NCCCNC(=O)C4CCC4)n3)ccc2C1` [MRT68921], for which the inhibition at 1 µM in assay [1], in assay [2] (read-out: % inhibition at 1 μM), in assay [3] and in assay [4] was over 90% each time.
With MRT403, the “% inhibition at 1 μM” value in assay [2] was over 90. This molecule also had an IC50 in assay [5] of 1.6 nM.
